Source: the supplement of paper PMC10307832

Assays:
Experiment in all cases: relative viability (nuclei count vs DMSO), 5 days (fraction); higher = more cells survive
Kobe2602 + Navitoclax = compound: C1=CC(=CC=C1NC(=S)NNC2=C(C=C(C=C2[N+](=O)[O-])C(F)(F)F)[N+](=O)[O-])F [Kobe2602] + CC1(C)CCC(c2ccc(Cl)cc2)=C(CN2CCN(c3ccc(C(=O)NS(=O)(=O)c4ccc(N[C@H](CCN5CCOCC5)CSc5ccccc5)c(S(=O)(=O)C(F)(F)F)c4)cc3)CC2)C1 [Navitoclax] (partner 0.5 µM)
Outline: (§1)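 Relative viability divides the nuclei count in treated wells by that in vehicle wells. Lung cancer cell lines were seeded in 1536-well plates, dosed by pin tool the next day, and fixed and stained after 5 days in one step with final 0.05% Triton X-100, 1% formaldehyde and 1 ug/ml Hoechst. Dosing was a single drug or a fixed anchor-drug dose plus five library-drug doses (not always all listed) in √10 steps, and values are medians of duplicate plates imaged at 4×.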

[1] = compound: COc1cc2nccc(Oc3ccc(NC(=O)C4(C(=O)Nc5ccc(F)cc5)CC4)cc3)c2cc1OC [Cabozantinib] + CC(=O)Nc1cccc(-n2c(=O)n(C3CC3)c(=O)c3c(Nc4ccc(I)cc4F)n(C)c(=O)c(C)c32)c1 [Trametinib] (partner 0.02 µM)
Outline: as §1

[2] = compound: COc1cc2nccc(Oc3ccc(NC(=O)C4(C(=O)Nc5ccc(F)cc5)CC4)cc3)c2cc1OC [Cabozantinib] + CCNC(=O)c1noc(-c2cc(C(C)C)c(O)cc2O)c1-c1ccc(CN2CCOCC2)cc1 [Luminespib] (partner 0.01 µM)
Outline: as §1

Kobe2602 + Phenformin = compound: C1=CC(=CC=C1NC(=S)NNC2=C(C=C(C=C2[N+](=O)[O-])C(F)(F)F)[N+](=O)[O-])F [Kobe2602] + N=C(N)NC(=N)NCCc1ccccc1 [Phenformin] (partner 250 µM)
Outline: as §1

With NCI-H2126 the relative viability (Kobe2602 + Navitoclax; first compound 0.2 µM) was 0.883, the relative viability (Kobe2602 + Navitoclax; first compound 0.6325 µM) was 0.888 and the relative viability (Kobe2602 + Navitoclax; first compound 2 µM) was 0.799. It also gave a relative viability (Kobe2602 + Navitoclax; first compound 6.325 µM) of 0.776, a relative viability (Kobe2602 + Navitoclax; first compound 20 µM) of 0.788 and a relative viability ([1]; first compound 0.02 µM) of 0.534. The relative viability ([1]; first compound 0.06325 µM) was 0.594, the relative viability ([1]; first compound 0.2 µM) was 0.568 and the relative viability ([1]; first compound 0.6325 µM) was 0.589. For the same cell line, the relative viability ([1]; first compound 2 µM) was 0.578, the relative viability ([2]; first compound 0.02 µM) was 0.871 and the relative viability ([2]; first compound 0.06325 µM) was 0.973. The relative viability ([2]; first compound 0.2 µM) was 0.969, the relative viability ([2]; first compound 0.6325 µM) was 0.89 and the relative viability ([2]; first compound 2 µM) was 1.1. The relative viability (Kobe2602 + Phenformin; first compound 0.2 µM) was 0.552, the relative viability (Kobe2602 + Phenformin; first compound 0.6325 µM) was 0.53 and the relative viability (Kobe2602 + Phenformin; first compound 2 µM) was 0.521. The relative viability (Kobe2602 + Phenformin; first compound 6.325 µM) was 0.513 and the relative viability (Kobe2602 + Phenformin; first compound 20 µM) was 0.494.

LXF-289 gave a relative viability (Kobe2602 + Navitoclax; first compound 0.2 µM) of 0.95, a relative viability (Kobe2602 + Navitoclax; first compound 0.6325 µM) of 0.959 and a relative viability (Kobe2602 + Navitoclax; first compound 2 µM) of 0.873. For the same cell line, the relative viability (Kobe2602 + Navitoclax; first compound 6.325 µM) was 0.941, the relative viability (Kobe2602 + Navitoclax; first compound 20 µM) was 0.923 and the relative viability ([1]; first compound 0.02 µM) was 0.735. It also gave a relative viability ([1]; first compound 0.06325 µM) of 0.654, a relative viability ([1]; first compound 0.2 µM) of 0.659 and a relative viability ([1]; first compound 0.6325 µM) of 0.719. For the same cell line, the relative viability ([1]; first compound 2 µM) was 0.695, the relative viability ([2]; first compound 0.02 µM) was 0.683 and the relative viability ([2]; first compound 0.06325 µM) was 0.764. The relative viability ([2]; first compound 0.2 µM) was 0.689, the relative viability ([2]; first compound 0.6325 µM) was 0.715 and the relative viability ([2]; first compound 2 µM) was 0.662. For the same cell line, the relative viability (Kobe2602 + Phenformin; first compound 0.2 µM) was 0.495, the relative viability (Kobe2602 + Phenformin; first compound 0.6325 µM) was 0.577 and the relative viability (Kobe2602 + Phenformin; first compound 2 µM) was 0.494. It also gave a relative viability (Kobe2602 + Phenformin; first compound 6.325 µM) of 0.536 and a relative viability (Kobe2602 + Phenformin; first compound 20 µM) of 0.518.

With BEN the relative viability (Kobe2602 + Navitoclax; first compound 0.2 µM) was 0.0992, the relative viability (Kobe2602 + Navitoclax; first compound 0.6325 µM) was 0.0652 and the relative viability (Kobe2602 + Navitoclax; first compound 2 µM) was 0.0611. The relative viability (Kobe2602 + Navitoclax; first compound 6.325 µM) was 0.0659, the relative viability (Kobe2602 + Navitoclax; first compound 20 µM) was 0.0705 and the relative viability ([1]; first compound 0.02 µM) was 0.979. It also gave a relative viability ([1]; first compound 0.06325 µM) of 1.08, a relative viability ([1]; first compound 0.2 µM) of 0.998 and a relative viability ([1]; first compound 0.6325 µM) of 0.982. For the same cell line, the relative viability ([1]; first compound 2 µM) was 0.77, the relative viability ([2]; first compound 0.02 µM) was 0.3 and the relative viability ([2]; first compound 0.06325 µM) was 0.414. The relative viability ([2]; first compound 0.2 µM) was 0.326, the relative viability ([2]; first compound 0.6325 µM) was 0.352 and the relative viability ([2]; first compound 2 µM) was 0.257. The relative viability (Kobe2602 + Phenformin; first compound 0.2 µM) was 0.264, the relative viability (Kobe2602 + Phenformin; first compound 0.6325 µM) was 0.295 and the relative viability (Kobe2602 + Phenformin; first compound 2 µM) was 0.302. It also gave a relative viability (Kobe2602 + Phenformin; first compound 6.325 µM) of 0.246 and a relative viability (Kobe2602 + Phenformin; first compound 20 µM) of 0.25.

For LCLC-97TM1, the relative viability (Kobe2602 + Navitoclax; first compound 0.2 µM) was 0.253, the relative viability (Kobe2602 + Navitoclax; first compound 0.6325 µM) was 0.462 and the relative viability (Kobe2602 + Navitoclax; first compound 2 µM) was 0.531. For the same cell line, the relative viability (Kobe2602 + Navitoclax; first compound 6.325 µM) was 0.282, the relative viability (Kobe2602 + Navitoclax; first compound 20 µM) was 0.317 and the relative viability ([1]; first compound 0.02 µM) was 0.197. For the same cell line, the relative viability ([1]; first compound 0.06325 µM) was 0.236, the relative viability ([1]; first compound 0.2 µM) was 0.214 and the relative viability ([1]; first compound 0.6325 µM) was 0.212. The relative viability ([1]; first compound 2 µM) was 0.19, the relative viability ([2]; first compound 0.02 µM) was 0.784 and the relative viability ([2]; first compound 0.06325 µM) was 0.817. For the same cell line, the relative viability ([2]; first compound 0.2 µM) was 0.875, the relative viability ([2]; first compound 0.6325 µM) was 0.805 and the relative viability ([2]; first compound 2 µM) was 0.638. It also gave a relative viability (Kobe2602 + Phenformin; first compound 0.2 µM) of 0.44, a relative viability (Kobe2602 + Phenformin; first compound 0.6325 µM) of 0.428 and a relative viability (Kobe2602 + Phenformin; first compound 2 µM) of 0.434. The relative viability (Kobe2602 + Phenformin; first compound 6.325 µM) was 0.39 and the relative viability (Kobe2602 + Phenformin; first compound 20 µM) was 0.42.

In the case of NCI-H1993, the relative viability (Kobe2602 + Navitoclax; first compound 0.2 µM) is reported as 0.678, the relative viability (Kobe2602 + Navitoclax; first compound 0.6325 µM) is reported as 0.707 and the relative viability (Kobe2602 + Navitoclax; first compound 2 µM) is reported as 0.787. For the same cell line, the relative viability (Kobe2602 + Navitoclax; first compound 6.325 µM) was 0.687, the relative viability (Kobe2602 + Navitoclax; first compound 20 µM) was 0.729 and the relative viability ([1]; first compound 0.02 µM) was 0.508. It also gave a relative viability ([1]; first compound 0.06325 µM) of 0.531, a relative viability ([1]; first compound 0.2 µM) of 0.526 and a relative viability ([1]; first compound 0.6325 µM) of 0.436. The relative viability ([1]; first compound 2 µM) was 0.571, the relative viability ([2]; first compound 0.02 µM) was 0.787 and the relative viability ([2]; first compound 0.06325 µM) was 0.738. The relative viability ([2]; first compound 0.2 µM) was 0.667, the relative viability ([2]; first compound 0.6325 µM) was 0.828 and the relative viability ([2]; first compound 2 µM) was 0.73. For the same cell line, the relative viability (Kobe2602 + Phenformin; first compound 0.2 µM) was 0.51, the relative viability (Kobe2602 + Phenformin; first compound 0.6325 µM) was 0.453 and the relative viability (Kobe2602 + Phenformin; first compound 2 µM) was 0.503. It also gave a relative viability (Kobe2602 + Phenformin; first compound 6.325 µM) of 0.501 and a relative viability (Kobe2602 + Phenformin; first compound 20 µM) of 0.515.

For NCI-H596, the relative viability (Kobe2602 + Navitoclax; first compound 0.2 µM) was 0.908, the relative viability (Kobe2602 + Navitoclax; first compound 0.6325 µM) was 1.05 and the relative viability (Kobe2602 + Navitoclax; first compound 2 µM) was 0.949. It also gave a relative viability (Kobe2602 + Navitoclax; first compound 6.325 µM) of 0.962, a relative viability (Kobe2602 + Navitoclax; first compound 20 µM) of 0.992 and a relative viability ([1]; first compound 0.02 µM) of 0.94. It also gave a relative viability ([1]; first compound 0.06325 µM) of 0.941, a relative viability ([1]; first compound 0.2 µM) of 0.797 and a relative viability ([1]; first compound 0.6325 µM) of 0.779. It also gave a relative viability ([1]; first compound 2 µM) of 0.78, a relative viability ([2]; first compound 0.02 µM) of 0.905 and a relative viability ([2]; first compound 0.06325 µM) of 1.26. The relative viability ([2]; first compound 0.2 µM) was 1.02, the relative viability ([2]; first compound 0.6325 µM) was 1.08 and the relative viability ([2]; first compound 2 µM) was 0.907. It also gave a relative viability (Kobe2602 + Phenformin; first compound 0.2 µM) of 0.717, a relative viability (Kobe2602 + Phenformin; first compound 0.6325 µM) of 0.816 and a relative viability (Kobe2602 + Phenformin; first compound 2 µM) of 0.672. It also gave a relative viability (Kobe2602 + Phenformin; first compound 6.325 µM) of 0.614 and a relative viability (Kobe2602 + Phenformin; first compound 20 µM) of 0.737.

NCI-H1975 showed a relative viability (Kobe2602 + Navitoclax; first compound 0.2 µM) of 1.08, a relative viability (Kobe2602 + Navitoclax; first compound 0.6325 µM) of 0.955 and a relative viability (Kobe2602 + Navitoclax; first compound 2 µM) of 0.968. The relative viability (Kobe2602 + Navitoclax; first compound 6.325 µM) was 1.1, the relative viability (Kobe2602 + Navitoclax; first compound 20 µM) was 0.928 and the relative viability ([1]; first compound 0.02 µM) was 0.331. The relative viability ([1]; first compound 0.06325 µM) was 0.389, the relative viability ([1]; first compound 0.2 µM) was 0.638 and the relative viability ([1]; first compound 0.6325 µM) was 0.417. It also gave a relative viability ([1]; first compound 2 µM) of 0.217, a relative viability ([2]; first compound 0.02 µM) of 0.221 and a relative viability ([2]; first compound 0.06325 µM) of 0.258. The relative viability ([2]; first compound 0.2 µM) was 0.233, the relative viability ([2]; first compound 0.6325 µM) was 0.219 and the relative viability ([2]; first compound 2 µM) was 0.212. The relative viability (Kobe2602 + Phenformin; first compound 0.2 µM) was 0.433, the relative viability (Kobe2602 + Phenformin; first compound 0.6325 µM) was 0.442 and the relative viability (Kobe2602 + Phenformin; first compound 2 µM) was 0.427. For the same cell line, the relative viability (Kobe2602 + Phenformin; first compound 6.325 µM) was 0.379 and the relative viability (Kobe2602 + Phenformin; first compound 20 µM) was 0.388.
